Source: US20260226048A1, “MULTI-CYCLIC IRAK AND FLT3 INHIBITING COMPOUNDS AND USES THEREOF” (CHILDREN'S HOSPITAL MEDICAL CENTER, priority 2023, published 2026)

Legend:
[1] = tested on: MOLM14-D835Y cells (FLT3-ITD (D835Y) mutant); assay: Combination drug screening with venetoclax in MOLM14 (D835Y) cells (Cell Titre Glo, 10 × 10); assay type: cell-based; set-up: Excess HSA (sum excess HSA score, combination with venetoclax): scale not given here; settings: for Excess HSA (sum excess HSA score, combination with venetoclax): 10 × 10 dataset, Cell Titre Glo at 48 hours, optimal of 4 dose combinations, negative = synergy; for Concentration of a compound of the disclosure, or gilteritinib, needed to decrease the 62.5 nM Ven response to <10% in MOLM14(D835Y) cells: combination with 62.5 nM Venetoclax, Cell Titer Glo, 48 hours, response <10%
Protocol: These assays were performed using the Cell Titre Glo assay, measured at 48 hours.
A smaller concentration indicates higher potency to synergize with Venetoclax.

IRAK4 [2] = molecular target: T1, IRAK4 (Homo sapiens, UniProt Q9NWZ3); assay: RBC HotSpot Kinase Assay, IRAK4; assay type: biochemical; set-up: purchased Reaction Biology (RBC HotSpot); settings: isolated kinase enzyme, 33P-ATP, P81 filter-binding
T1 sequence (Q9NWZ3 1-460): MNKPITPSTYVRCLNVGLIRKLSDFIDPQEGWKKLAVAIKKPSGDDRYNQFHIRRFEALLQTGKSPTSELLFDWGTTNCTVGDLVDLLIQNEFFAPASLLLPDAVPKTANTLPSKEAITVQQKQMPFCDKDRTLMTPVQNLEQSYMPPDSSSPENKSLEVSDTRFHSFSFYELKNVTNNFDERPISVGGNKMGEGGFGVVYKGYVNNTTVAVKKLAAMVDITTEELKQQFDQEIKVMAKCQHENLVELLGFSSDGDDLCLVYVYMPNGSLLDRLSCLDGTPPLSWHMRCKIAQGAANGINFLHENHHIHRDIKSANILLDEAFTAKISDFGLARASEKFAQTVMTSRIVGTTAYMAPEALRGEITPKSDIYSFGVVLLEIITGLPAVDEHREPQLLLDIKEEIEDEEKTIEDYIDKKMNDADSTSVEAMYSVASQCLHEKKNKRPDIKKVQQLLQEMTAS
Summary of the method: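 Radiometric filter-binding activity assay with isolated recombinant kinase (construct may be truncated or catalytic domain only) in 20 mM Hepes pH 7.5, 10 mM MgCl2, 1 mM EGTA, 2 mM DTT, 1% DMSO. Compound preincubated 20 min with kinase/substrate; reaction started with 33P-ATP, run 2 h at room temperature.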

IRAK4 [3] = molecular target: T1, IRAK4; assay: Reaction Biology NanoBRET target engagement assay in HEK-293 cells, IRAK4; assay type: cell-based; settings: live HEK-293 cells transfected with Kinase-NanoLuc fusion, 1 hour
Source text: The NanoBRET assay measures kinase engagement in real time in the context of the intact cell. Unlike the previously described biochemical kinase assay methodology in Example 33, the NanoBRET assay measures the binding and activity characteristics under equilibrium conditions using full-length kinases in the presence of cellular concentrations of ATP in live, uncompromised cells. As such, the assay provides a more relevant assessment of kinase potency and selectivity that would be expected to be observed in the native cellular environment, where potency is often considerably lower than that observed in the isolated biochemical assays (Vasta, J. D. et al., (2018) Cell Chem. Biol. 25, 206-214). The assay uses a Kinase-NanoLuc® fusion vector expressing a kinase protein to which a luciferase tag has been added, a cell-permeant fluorescent NanoBRET™ tracer, a NanoLuc® substrate, and an extracellular NanoLuc® inhibitor. Upon expression of the luciferase-tagged kinase, cells will produce a strong BRET signal only in the presence of the NanoBRET™ tracer. The extracellular NanoLuc® inhibitor ensures that the BRET signal observed emanates only from live cells. Because the BRET signal has tight distance constraints, addition of the test compound will decrease the BRET signal if the compound competes with the NanoBRET™ tracer for binding to the kinase domain. Under the appropriate tracer conditions established by the manufacturer, quantitative intracellular affinity and relative potency can then be determined using Mass Action model equations.
HEK-293 cells were purchased from ATCC. FuGENEHD Transfection Reagent, Kinase-NanoLucfusion plasmids, Transfection Carrier DNA, NanoBRETTracers and dilution buffer, NanoBRETNano-Glo Substrate, Extracellular NanoLucInhibitor were obtained from Promega.
Assays were conducted following Promega assay protocol with some modifications. HEK-293 Cells were transiently transfected with Kinase-NanoLucFusion Vector DNA by FuGENEHD Transfection Reagent. Testing compounds were delivered into 384 well assay plate by Echo 550 (LabcyteInc, Sunnyvale, CA). Transfected cells were harvested and mixed with NanoBRETTracer Reagent and dispensed into 384 well plates and incubated at 37° C. in 5% C02 cell culture incubator for 1 hour. The NanoBRETNano-Glo Substrate plus Extracellular NanoLucInhibitor Solution were added into the wells of the assay plate and incubated for 2-3 minutes at room temperature. The donor emission wavelength (460 nm) and acceptor emission wavelength (600 nm) were measured in the EnVisionplate reader. The BRET Ratios were calculated. BRET Ratio=[(Acceptor sample÷Donor sample)−(Acceptor no-tracer control÷Donor no-tracer control)]. The IC50 values of compounds were calculated with Prism GraphPad program.
• 1). Cultivate HEK-293 cells (70-80% confluence) appropriately prior to assay. Trypsinize and collect HEK-293 cells. • 2). Prepare lipid: DNA complexes as follows: • a. Prepare a 10 μg/ml solution of DNA in Opti-MEM without serum that consists of the following ratios of carrier DNA and DNA encoding NanoLuc® fusion. 9.0 μg/mL of Transfection Carrier DNA, 1.0 μg/mL of NanoLuc fusion vector DNA and 1 mL of Opti-MEM without phenol red. Mix thoroughly. • b. Add 30 μl of FuGENE HD Transfection Reagent into each milliliter of DNA mixture to form lipid: DNA complex. • c. Mix by inversion 10 times. • d. Incubate at ambient temperature for 20 minutes to allow complexes to form. • 3). In a sterile, conical tube, mix 1 part of lipid:DNA complex with 20 parts of HEK-293 cells in suspension. Mix gently by inversion 5 times. • 4). Dispense cells+lipid:DNA complex into a sterile tissue culture dish and incubate for 22-24 hours.
Each test compound is delivered from the compound source plate to the wells of 384-well white NBS plate by Echo 550.
3. Preparation of Cells with NanoBRET™ Tracer Reagent • 1). […]

SMILES | Excess HSA (sum excess HSA score, combination with venetoclax) [1] | Concentration of a compound of the disclosure, or gilteritinib, needed to decrease the 62.5 nM Ven response to <10% in MOLM14(D835Y) cells [1] [nM] | IC50 (IRAK4 [2]) [nM] | IC50 (IRAK4 [3]) [nM]
CC(O)(c1ccc2ncc(-c3ccnc(N[C@H]4CNCC[C@@H]4F)n3)n2c1)C(F)(F)F (single isomer, unassigned) [Compound 25a] | −1507 | 25 | 2 | 2
CC(C)(O)c1cn2c(-c3nc(N[C@H]4CNCC[C@@H]4F)ncc3F)cnc2cn1 [Compound 100a, 2-(3-(5-fluoro-2-(((3S,4S)-4-fluoropiperidin-3-yl)amino)pyrimidin-4-yl)imidazo[1,2-a]pyrazin-6-yl)propan-2-ol] | −1548 | 625 | 2 | 8
COc1cc2ncc(-c3ccnc(N[C@H]4CNCC[C@@H]4F)n3)n2nc1C1CCC1 [Compound 79a, 4-(6-cyclobutyl-7-methoxyimidazo[1,2-b]pyridazin-3-yl)-N-((3S,4S)-4-fluoropiperidin-3-yl)pyrimidin-2-amine] | −1180 | 25 | 2 | < 0.5
